In PMC8537711, “Mechanistic Insights into Binding of Ligands with Thiazolidinedione Warhead to Human Histone Deacetylase 4” (Pharmaceuticals, 2021):

How the values were obtained:
[1] = biological target: T1, cdHDAC4wt (Homo sapiens, UniProt P56524); assay: Association kinetics (semi continuous enzyme activity assay, kobs vs inhibitor concentration); type: biochemical; conditions: for residence time: 1/koff (two step) or 1/k−3 (one step), read-out: RT (KF), residence time from kinetic fit; for forward isomerization rate constant (k2) / koff / kon: two step model; for forward isomerization rate constant (k2) / koff: isomerization rate; for koff: y-axis intercept; for Ki: two step induced fit model, read-out: K1 (equilibrium constant of initial encounter complex)
T1 construct: consists of 410 amino acids (human HDAC4 T648-T1057) and has a molecular weight of 44.2 kDa; His6-SUMO (cleaved yes); made in house; host or cells: E. coli (BL21) DE3 pLysS, pET14b vector
T1 sequence (P56524 648-1057): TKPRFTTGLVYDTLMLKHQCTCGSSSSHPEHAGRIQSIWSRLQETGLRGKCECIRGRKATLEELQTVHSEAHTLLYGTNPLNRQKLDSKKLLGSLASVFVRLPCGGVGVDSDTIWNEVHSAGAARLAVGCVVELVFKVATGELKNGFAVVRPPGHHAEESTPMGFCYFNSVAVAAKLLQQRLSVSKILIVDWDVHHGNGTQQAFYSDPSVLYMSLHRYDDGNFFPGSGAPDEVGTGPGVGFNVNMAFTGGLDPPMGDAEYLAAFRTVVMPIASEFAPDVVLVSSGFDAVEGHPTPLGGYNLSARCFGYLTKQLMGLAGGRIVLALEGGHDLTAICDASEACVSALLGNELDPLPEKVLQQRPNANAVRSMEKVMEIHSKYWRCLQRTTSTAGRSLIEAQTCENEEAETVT
Experimental: A serial dilution of inhibitor beginning at 10-fold of respective IC50-value in assay buffer (25 mM Tris-HCl, pH 8.0, 75 mM KCl, 0.001% Pluronic F-127) was made in a black 96-well microtiter half-area plate (Greiner, Kremsmuenster, Austria). The dilutions were added to 3 nM cdHDAC4wt. Shortly after, the reaction was initiated by adding 20 µM Boc-Lys{TFA}-7-Amino-4-methylcoumarin (Bachem, Bubendorf, Switzerland) as substrate. […] Finally 0.4 mg/mL trypsin was added to split the deacetylated substrate in the fluorescent product which was measured at 450 nm (λEx = 350 nm) (PherStar Plus, BMG Labtech, Ortenberg, Germany). […] The standardized RFUs were plotted against the incubation time. […] Due to this knowledge the data were fitted via non linear regression with GraphPad Prism program to the following equation by Copeland [27]:(2) Y=νs·t+νi−νs/kobs·(1−e^(−kobs·t))+d where vi is the initial slope, vs is the second lower slope, kobs is the respective rate constant, t is time and d the correction for possible data offset.
Afterwards kobs values were plotted against their respective inhibitor concentration.

[2] = biological target: T1, cdHDAC4wt; assay: Reversibility assay via rapid dilution; residence time from reversibility data; type: biochemical; conditions: first order dissociation assumed; read-out: RT (RD), residence time from rapid dilution
Experimental: Rapid dilution was performed by diluting the incubated mixture 100-fold with substrate (Boc-Lys{TFA}-7-Amino-4-methylcoumarin (Bachem, Bubendorf, Switzerland)) with the final substrate concentration being 20 µM. […] A positive control without TZD ligand and a blank without enzyme and TZD ligand were also carried out. […] Once again the final substrate concentration was 20 µM. […] The deacetylated substrate was converted into a fluorescent product by the addition of 0.4 mg/mL trypsin (AppliChem, Darmstadt, Germany). The release of fluorogenic substrate was followed in a microplate reader (PherStar Plus, BMG Labtech, Ortenberg, Germany) at 450 nm (λEx = 350 nm) and correlated the positive control. […] All incubations steps were performed for 60 min at 30 °C and 450 rpm. The substrate was preheated to 30 °C before the rapid dilution step.
The reciprocal values for k equals the residence time of the respective TZD ligand (residence time = koff^−1), which can be compared with the residence times gained from association data.

[3] = biological target: T1, cdHDAC4wt; assay: Michaelis Menten kinetics for mode of action; type: biochemical; conditions: increasing Km, essentially unchanged vmax with increasing compound concentration
Experimental: For E677A, F812A, C813S, F871A and H976Y (GoF) 5 nM enzyme were used. […] Signal was developed for 30 min at room temperature and the fluorescence was measured at 450 nm (λEx = 350 nm) in a PherStar Plus (BMG Labtech, Ortenberg, Germany) fluorescence plate reader. […] Afterwards, the product concentration was plotted against the time and v0 (µM/min) was calculated from the resulting slopes. Now the initial velocity was plotted against the substrate concentration and Km was calculated using a Michaelis Menten-Fit in GraphPad Prism. The value of vmax is neglected because enzyme concentration and purity are too inconsistent between the mutant variant to calculate this value appropriate.

[4] = biological target: T2, cdHDAC4wt (catalytic domain of human wild type histone deacetylase 4) (Homo sapiens, UniProt P56524); assay: IC50 determination, enzyme activity assay with Boc-Lys{TFA}-AMC; type: biochemical; conditions: mean ± SD, N = 3
T2 construct: consists of 410 amino acids (human HDAC4 T648-T1057) and has a molecular weight of 44.2 kDa; His6-SUMO (cleaved yes); made in house; host or cells: E. coli (BL21) DE3 pLysS, pET14b vector
T2 sequence (P56524 648-1057): as above
Experimental: Afterwards the enzymatic reaction was initiated by the addition of 20 µM Boc-Lys{TFA}-7-Amino-4-methylcoumarin (Bachem, Bubendorf, Switzerland) as substrate. […] The deacetylated substrate was converted into a fluorescent product by the addition of 0.4 mg/mL trypsin (AppliChem, Darmstadt, Germany). The release of fluorogenic substrate was followed in a microplate reader (PherStar Plus, BMG Labtech, Ortenberg, Germany) at 450 nm (λEx = 350 nm) and correlated to enzyme activity.
All incubations steps were performed for 60 min at 30 °C and 450 rpm.

[5] = system: cdHDAC4 mutant variants; assay: Mutational study: Ki (Cheng-Prusoff from IC50) against cdHDAC4 mutant variants relative to wild type; type: biochemical, human; conditions: exchange of S758, D759, E764, T808, F812, F871 and L943
Experimental: To gain an thorough knowledge of the most involved amino acids necessary for molecular recognition of TZD ligands to cdHDAC4wt, a comprehensive mutational study was designed. Amino acids flanking the active site binding pocket in the closed (Figure 5A) and open (Figure 5B) conformation of the enzyme were systematically exchanged and IC50-values of a subset of 25 TZDs were determined against every mutant variant. Because IC50-values depends on the substrate concentration and the Km of the substrate, the Michaelis Menten parameters were determined first using substrate tert-butyl N-[(2S)-1-[(4-methyl-2-oxochromen-7-yl)amino]-1-oxo-6-[(2,2,2-trifluoroacetyl)amino]hexan-2-yl]carbamate (Boc-Lys{TFA}-AMC) in a semi continuous enzyme activity assay (Figure 5C and Figure S1). IC50-values were transformed into binding constant Ki using the Cheng-Prusoff equation to enable a fair comparison of ligand affinities to the respective HDAC4 variant:(1) IC50=(1+[S]/Km)×Ki
A serial dilution of TZD in assay buffer (25 mM TRIS-HCl, 75 mM KCl, 0.001% Pluronic F-127, pH 8.0) was incubated with 1 nM cdHDAC4wt in a black 96-well microtiter plate (Greiner). […] The release of fluorogenic substrate was followed in a microplate reader (PherStar Plus, BMG Labtech, Ortenberg, Germany) at 450 nm (λEx = 350 nm) and correlated to enzyme activity. […]

SMILES | residence time [1] | y-intercept of kobs plot (k−3) ([1]; linear regression, one step model) | k3 ([1]; one step model, slope of kobs vs ligand concentration) | k−3 ([1]; one step model, y-intercept) | residence time [2] | mode of inhibition [3] | IC50 [4] | forward isomerization rate constant (k2) [1] | koff [1] | Ki [1] | kon [1] | log10Ki ratio (Ki mutant / Ki wildtype) [5]
O=C(COc1ccc(/C=C2\SC(=O)NC2=O)cn1)Nc1nc2ccccc2s1 [5w] | 19 ± 7 min | (8 ± 3) × 10^−4 s^−1 | 1900 ± 100 M⁻¹ s⁻¹ | 0.08 ± 0.03 s^−1 (×10^−2) | 12 ± 3 min | competitive inhibitor | – | – | – | – | – | –
O=C1NC(=O)/C(=C/c2ccc3cc(OCC(=O)N4N=C(c5ccccc5)CC4c4ccccc4F)ccc3c2)S1 (stereo not shown) [8b] | 11 ± 3 min | – | – | – | 29 ± 3 min | – | 0.33 ± 0.02 µM | 0.003 ± 0.0006 s⁻¹ | 0.0015 ± 0.0004 s⁻¹ | 0.65 ± 0.47 µM | – | –
O=C1NC(=O)/C(=C/c2ccc3cc(OCC(=O)N4N=C(c5ccccc5)CC4c4ccco4)ccc3c2)S1 (stereo not shown) [8c] | 12 ± 6 min | – | – | – | 12 ± 1 min | – | 1.2 ± 0.1 µM | 0.0021 ± 0.0009 s⁻¹ | 0.0014 ± 0.0007 s⁻¹ | – | (2.1 ± 0.9) × 10^−3 s^−1 | –
Cc1ccc(C2CC(c3ccccc3)=NN2C(=O)COc2ccc3cc(/C=C4\SC(=O)NC4=O)ccc3c2)cc1 (stereo not shown) [8g] | 10 ± 2 min | – | – | – | 18 ± 7 min | – | 0.76 ± 0.08 µM | 0.0038 ± 0.0007 s⁻¹ | 0.0016 ± 0.0003 s⁻¹ | 3 ± 2 µM | – | –
O=C1NC(=O)/C(=C/c2ccc3cc(OCC(=O)N4N=C(c5ccccc5)CC4c4cccs4)ccc3c2)S1 (stereo not shown) [8i] | 14 ± 4 min | – | – | – | 13 ± 8 min | – | 0.34 ± 0.04 µM | 0.0054 ± 0.0005 s⁻¹ | 0.0012 ± 0.0003 s⁻¹ | 0.65 ± 0.31 µM | (5.4 ± 0.5) × 10^−3 s^−1 | –
O=C1NC(=O)/C(=C/c2ccc(OCC(=O)N3N=C(c4ccc(F)cc4)CC3c3ccc(Cl)c(Cl)c3)cc2)S1 (stereo not shown) [12j] | 9 ± 3 min | – | – | – | 11 ± 5 min | – | 0.83 ± 0.02 µM | 0.0031 ± 0.0007 s⁻¹ | 0.0018 ± 0.0005 s⁻¹ | – | – | –
O=C1NC(=O)/C(=C/c2ccc3cc(OCC(=O)N4N=C(c5ccc(F)cc5)CC4c4ccco4)ccc3c2)S1 (stereo not shown) [16c] | – | – | – | – | 21 ± 7 min | – | 1.4 ± 0.2 µM | 0.0035 ± 0.0018 s⁻¹ | – | – | – | –
Cc1ccc(C2CC(c3ccc(F)cc3)=NN2C(=O)COc2ccc3cc(/C=C4\SC(=O)NC4=O)ccc3c2)cc1 (stereo not shown) [16g] | – | – | – | – | 15 ± 2 min | – | 0.46 ± 0.06 µM | 0.0051 ± 0.0011 s⁻¹ | – | – | – | –
CC(/C=C/C(=O)NO)=C\[C@@H](C)C(=O)c1ccc(N(C)C)cc1 [TSA, Trichostatin A] | – | – | – | – | – | – | – | – | – | – | – | above 1
